Where two headings read alike, the source gives them in different places.
Legend:
Wistar rat heart PBR = Wistar rat heart PBR (Rattus norvegicus (Rat), UniProt P16257); assay: In vitro potency assay: competition for binding to PBR against 0.3 nM [3H]-PK-11195
Method: The reaction was carried out in 50 mM Tris-HCl, pH 7.4 10 mM MgCl2 for 15 minutes at 25° C.

PBR [1] = biological target: T1, PBR (Rattus norvegicus (Rat), UniProt P16257); assay: In vivo biodistribution, olfactory bulb:striatum uptake; details: 18F-labelled agents, adult male Wistar rats, lateral tail vein, 30 min post-injection
Method: In vivo imaging agents 1-7 as prepared in Examples 7, 8 and 9 above were tested in the in vivo biodistribution model and their biodistribution compared to that of the prior art compound [^18F]FE-PBR (prepared according to Example 14 of WO 2007/057705).
Adult male Wistar rats (200-300 g) were injected with 1-3 MBq of each in vivo imaging agent via the lateral tail vein. At 2 10,30 or 60 min (n=3) after injection, rats were euthanised and tissues or fluids were sampled for radioactive measurement by liquid scintillation counting.

PBR [2] = biological target: T1, PBR; assay: Autoradiography using facial nerve axotomy (FNA) model; type: in vivo; details: facial nucleus, 30 minutes after injection
Method: For in vivo studies, male Wistar rats (180-200 g) were used. Under Isoflurane anaesthesia, the hair from the right side of the auricular region was removed. An infraauricular incision was made and the main trunk of the facial nerve identified. The facial nerve was severed behind the ear at the exit from the stylomastoid foramen. The wound was sutured and animals left to recover. Seven days post-surgery animals were injected with ˜5-10 MBq in vivo imaging agent 1 via the lateral tail vein. Animals were killed 30 minutes later and brain stem removed and frozen in isopentane. Cryostat sections (12 μm) of brainstem containing both facial nuclei were mounted on glass slides and exposed to phosphor screen overnight.
Screens were then scanned on the Storm (GE Healthcare) phosphor-imager and the resultant scan was analysed and quantified using ImageQuant TL (GE Healthcare).

[3] = non-radioactive analogues, Wistar rat heart PBR, vs 0.3 nM [3H]-PK-11195, 15 minutes at 25° C., read-out: Ki

| Ki (Wistar rat heart PBR; [3]) [nM] | OB:Striatum @ 30 min (PBR [1]) | Compound | Average intensity in the lesioned side (PBR [2]; lesioned side, seven days post-surgery) | Average intensity in the non-lesioned side (PBR [2]; non-lesioned side) | Ki (Wistar rat heart PBR) [nM] |
| --- | --- | --- | --- | --- | --- |
| 0.93 | 2.00 | (+-)-4-fluoro-11-(2-fluoroethyl)-6,11-dihydro-5-thia-11-aza-benzo[a]fluorene-6-carboxylic acid diethyl amide [Imaging Agent 4] | – | – | – |
| 0.52 | 2.67 | CCOc1ccc2c(c1)c1c(n2CCF)-c2ccccc2SC1C(=O)N(CC)CC (stereo not shown) [compound 6] | – | – | – |
| 1.09 | 2.42 | CCN(CC)C(=O)C1Sc2ccccc2-c2c1c1c(OC)cccc1n2CCF (stereo not shown) [compound 7] | – | – | – |

| Compound | Ki (Wistar rat heart PBR; [3]) [nM] | OB:Striatum @ 30 min (PBR [1]) | Average intensity in the lesioned side (PBR [2]; lesioned side, seven days post-surgery) | Average intensity in the non-lesioned side (PBR [2]; non-lesioned side) | Ki (Wistar rat heart PBR) [nM] |
| --- | --- | --- | --- | --- | --- |
| (+-)-11-(2-fluoroethyl)-10-methoxy-6,11-dihydro-5-thia-11-aza-benzo[a]fluorene-6-carboxylic acid diethyl amide [Imaging Agent 3] | 0.4 | 3.50 | – | – | – |
| CCN(CC)C(=O)C1Sc2ccccc2-c2c1c1cc(OC)ccc1n2CCF (racemic) [Imaging Agent 1, (+-)-11-(2-fluoroethyl)-8-methoxy-6,11-dihydro-5-thia-11-aza-benzo[a]fluorene-6-carboxylic acid diethyl amide] | 0.37 | – | 7.75±0.95 | 3.73±0.36 | – |
| CCN(CC)C(=O)C1Sc2ccccc2-c2c1c1ccccc1n2CC[18F] (stereo not shown) [[^18F]FE-PBR, reference compound] | – | 1.42 | – | – | 0.68 |
